Source: US20250136578A1 (Kolm Therapeutics Inc., priority 2023, published 2025)
Where two headings read alike, the source gives them in different places.

Columns and labels:
VCaP cells = test: VCaP growth inhibition assay (CTG); format: cell-based; conditions: Homo sapiens, 216 h, 30 pM R1881, 9 days
Method in brief: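 Growth was measured by CTG luminescence after a 9-day exposure of VCaP cells to compound (final 10 fM–100 nM, fivefold steps) in the presence of 30 pM final R1881, in phenol red-free DMEM/5% CSS. IC50 values were derived by nonlinear 4-parameter regression of RLU against concentration.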

AR / CBP ternary complex = AR / CBP ternary complex (Homo sapiens, UniProt P10275+Q92793); test: Ternary complex formation assay (sandwich ELISA, AR capture, CBP antibody detection) in VCaP cell lysates; format: cell-based
Method in brief: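 Sandwich ELISA: plates were coated with anti-AR antibody (AR441) and given lysates of VCaP cells treated 1.5 h with bifunctional compound in charcoal-stripped serum. Co-captured CBP or p300 was probed with rabbit mAbs and HRP secondary. Chemifluorescent signal (ex 570/em 585) was read at 0, 5 and 15 min.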

[1] = treated 1.5 hours, rabbit CBP or p300 antibody detection, average, read-out: Average Ternary Complex
[2] = read-out: Average Ternary Complex, treated 1.5 hours, rabbit CBP or p300 antibody detection

Sequence of AR / CBP ternary complex (P10275 whole entry): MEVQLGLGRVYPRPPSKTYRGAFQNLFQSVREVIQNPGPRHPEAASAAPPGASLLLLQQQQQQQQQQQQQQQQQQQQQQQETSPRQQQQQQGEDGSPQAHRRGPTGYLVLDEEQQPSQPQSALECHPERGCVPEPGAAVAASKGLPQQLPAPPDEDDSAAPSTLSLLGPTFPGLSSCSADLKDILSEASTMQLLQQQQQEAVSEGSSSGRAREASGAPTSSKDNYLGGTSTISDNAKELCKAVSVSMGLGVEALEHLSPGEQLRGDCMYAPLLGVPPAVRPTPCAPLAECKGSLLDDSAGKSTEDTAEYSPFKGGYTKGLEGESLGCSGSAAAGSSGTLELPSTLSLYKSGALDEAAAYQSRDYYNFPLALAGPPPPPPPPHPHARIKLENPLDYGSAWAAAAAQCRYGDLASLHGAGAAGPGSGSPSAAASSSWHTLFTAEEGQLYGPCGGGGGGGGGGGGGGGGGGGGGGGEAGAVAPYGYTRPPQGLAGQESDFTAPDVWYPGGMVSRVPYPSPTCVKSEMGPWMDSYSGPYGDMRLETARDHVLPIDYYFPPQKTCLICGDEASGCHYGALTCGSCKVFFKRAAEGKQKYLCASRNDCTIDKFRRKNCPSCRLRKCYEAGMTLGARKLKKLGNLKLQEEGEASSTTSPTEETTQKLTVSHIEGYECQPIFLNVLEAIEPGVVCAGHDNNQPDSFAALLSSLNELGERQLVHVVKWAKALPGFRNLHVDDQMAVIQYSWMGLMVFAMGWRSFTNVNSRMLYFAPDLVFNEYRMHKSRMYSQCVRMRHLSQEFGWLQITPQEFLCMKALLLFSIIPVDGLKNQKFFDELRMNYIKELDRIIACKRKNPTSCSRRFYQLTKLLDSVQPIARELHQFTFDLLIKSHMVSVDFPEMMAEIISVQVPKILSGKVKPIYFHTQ
Sequence of AR / CBP ternary complex (Q92793 2-2442): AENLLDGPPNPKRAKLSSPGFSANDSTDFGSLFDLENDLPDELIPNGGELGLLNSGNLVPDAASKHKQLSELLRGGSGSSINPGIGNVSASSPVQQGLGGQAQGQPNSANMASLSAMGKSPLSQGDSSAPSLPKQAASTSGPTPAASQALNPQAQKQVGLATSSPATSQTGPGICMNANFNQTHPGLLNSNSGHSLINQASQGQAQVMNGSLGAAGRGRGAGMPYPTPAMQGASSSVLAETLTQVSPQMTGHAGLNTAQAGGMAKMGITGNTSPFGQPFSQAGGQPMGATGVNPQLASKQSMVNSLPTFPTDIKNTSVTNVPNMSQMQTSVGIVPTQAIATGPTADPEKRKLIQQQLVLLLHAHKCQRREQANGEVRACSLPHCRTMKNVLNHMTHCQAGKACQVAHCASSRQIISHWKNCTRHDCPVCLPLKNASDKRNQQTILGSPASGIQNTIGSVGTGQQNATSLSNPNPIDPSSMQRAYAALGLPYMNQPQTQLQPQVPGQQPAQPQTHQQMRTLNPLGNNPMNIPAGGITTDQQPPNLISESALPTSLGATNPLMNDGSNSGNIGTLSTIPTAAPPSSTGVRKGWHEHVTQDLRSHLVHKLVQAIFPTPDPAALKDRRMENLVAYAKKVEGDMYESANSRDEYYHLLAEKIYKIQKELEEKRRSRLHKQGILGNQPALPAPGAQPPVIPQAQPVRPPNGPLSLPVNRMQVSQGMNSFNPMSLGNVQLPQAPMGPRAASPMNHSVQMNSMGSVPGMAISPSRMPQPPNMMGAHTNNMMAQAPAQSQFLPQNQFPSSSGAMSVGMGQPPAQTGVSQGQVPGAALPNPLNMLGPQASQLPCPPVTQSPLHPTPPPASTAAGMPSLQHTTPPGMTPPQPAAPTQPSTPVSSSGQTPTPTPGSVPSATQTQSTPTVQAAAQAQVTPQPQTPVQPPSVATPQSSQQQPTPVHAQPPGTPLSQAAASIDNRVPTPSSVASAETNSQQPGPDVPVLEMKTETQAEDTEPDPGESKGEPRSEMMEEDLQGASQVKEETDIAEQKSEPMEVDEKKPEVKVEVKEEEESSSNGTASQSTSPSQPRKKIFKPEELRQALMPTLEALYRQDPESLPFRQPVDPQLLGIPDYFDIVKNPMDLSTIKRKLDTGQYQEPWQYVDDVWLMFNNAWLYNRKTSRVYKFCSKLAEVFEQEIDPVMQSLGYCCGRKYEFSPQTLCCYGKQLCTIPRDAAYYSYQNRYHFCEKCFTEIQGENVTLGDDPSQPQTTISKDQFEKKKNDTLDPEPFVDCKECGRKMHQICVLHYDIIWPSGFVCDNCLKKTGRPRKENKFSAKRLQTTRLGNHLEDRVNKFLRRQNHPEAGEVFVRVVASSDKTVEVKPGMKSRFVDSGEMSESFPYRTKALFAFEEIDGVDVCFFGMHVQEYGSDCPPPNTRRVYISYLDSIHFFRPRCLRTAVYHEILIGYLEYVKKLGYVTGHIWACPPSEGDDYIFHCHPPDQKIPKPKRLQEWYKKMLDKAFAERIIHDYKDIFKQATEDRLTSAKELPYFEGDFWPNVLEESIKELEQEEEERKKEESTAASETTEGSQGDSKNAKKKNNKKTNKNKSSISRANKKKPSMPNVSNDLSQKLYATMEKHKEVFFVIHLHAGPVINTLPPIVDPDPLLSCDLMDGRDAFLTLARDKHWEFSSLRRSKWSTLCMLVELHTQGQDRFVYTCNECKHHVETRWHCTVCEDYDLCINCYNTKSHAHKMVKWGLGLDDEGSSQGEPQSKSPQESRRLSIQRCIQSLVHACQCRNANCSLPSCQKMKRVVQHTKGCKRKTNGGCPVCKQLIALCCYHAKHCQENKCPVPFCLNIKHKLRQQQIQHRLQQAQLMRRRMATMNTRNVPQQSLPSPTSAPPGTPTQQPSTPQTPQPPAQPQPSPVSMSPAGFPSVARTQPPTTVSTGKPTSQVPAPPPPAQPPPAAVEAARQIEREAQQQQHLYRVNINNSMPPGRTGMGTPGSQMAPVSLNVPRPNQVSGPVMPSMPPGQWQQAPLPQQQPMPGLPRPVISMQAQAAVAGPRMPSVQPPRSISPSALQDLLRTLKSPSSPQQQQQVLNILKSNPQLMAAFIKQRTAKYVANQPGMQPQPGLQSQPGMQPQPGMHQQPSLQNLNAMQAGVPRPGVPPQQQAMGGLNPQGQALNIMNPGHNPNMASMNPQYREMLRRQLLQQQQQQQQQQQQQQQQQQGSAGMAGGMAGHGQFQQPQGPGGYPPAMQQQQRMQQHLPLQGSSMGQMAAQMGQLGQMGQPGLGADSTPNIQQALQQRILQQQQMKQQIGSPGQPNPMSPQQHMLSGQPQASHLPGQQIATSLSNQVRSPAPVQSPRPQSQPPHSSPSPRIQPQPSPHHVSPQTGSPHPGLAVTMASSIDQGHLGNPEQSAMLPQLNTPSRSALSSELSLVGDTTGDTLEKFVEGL

Compound	IC50 (VCaP cells)	EC50 (AR / CBP ternary complex; [1])	EC50 (AR / CBP ternary complex; [2])
Cn1cc(-c2cc3cccc(-c4cc(C5CCN(CC6CCN(c7ccc(C(=O)N[C@H]8CC[C@H](Oc9ccc(C#N)c(Cl)c9)CC8)nn7)CC6)CC5)c5c(c4)n(C)c(=O)n5C)c3cn2)cn1 [Compound 31, N-[4-(3-chloro-4-cyano-phenoxy)cyclohexyl]-6-[4-[[4-[1,3-dimethyl-6-[3-(1-methylpyrazol-4-yl)-8-isoquinolyl]-2-oxo-benzimidazol-4-yl]-1-piperidyl]methyl]-1-piperidyl]pyridazine-3-carboxamide]	≤ 0.1 nM	< 1 nM	
CC(=O)N1CCc2c(c(N3CCCc4cc(C#N)ccc43)nn2C2CC3(C2)CN(C(=O)C2CC4(C2)CN(c2ccc(C(=O)N[C@H]5CC[C@H](Oc6ccc(C#N)c(Cl)c6)CC5)nn2)C4)C3)C1 (stereo partly shown) [Compound 44, 6-[6-[6-[5-acetyl-3-(6-cyano-3,4-dihydro-2H-quinolin-1-yl)-6,7-dihydro-4H-pyrazolo[4,3-c]pyridin-1-yl]-2-azaspiro [3.3]heptane-2-carbonyl]-2-azaspiro[3.3]heptan-2-yl]-N-[4-(3-chloro-4-cyano-phenoxy)cyclohexyl] pyridazine-3-carboxamide]	0.1 to 1 nM	< 1 nM	
CC(=O)N1CCc2c(c(N3CCCc4cc(-c5cnn(C)c5)c(C(F)F)cc43)nn2C2CCN([C@H]3C[C@H](Oc4ccc(C(=O)N[C@H]5CC[C@H](Oc6ccc(C#N)c(Cl)c6)CC5)nn4)C3)CC2)C1 [Compound 240, 6-[3-[4-[5-acetyl-3-[7-(difluoromethyl)-6-(1-methylpyrazol-4-yl)-3,4-dihydro-2H-quinolin-1-yl]-6,7-dihydro-4H-pyrazolo[4,3-c]pyridin-1-yl]-1-piperidyl]cyclobutoxy]-N-[4-(3-chloro-4-cyano-phenoxy)cyclohexyl]pyridazine-3-carboxamide]	0.1 to 1 nM	< 1 nM	
CC(=O)N1CCc2c(c(N3CCCc4cc(-c5cnn(C)c5)c(C(F)F)cc43)nn2C2CCN(C(=O)C3CCN(c4ccc(C(=O)N[C@H]5CC[C@H](Oc6ccc(C#N)c(Cl)c6)CC5)nn4)CC3)CC2)C1 [Compound 2]	≤ 0.1 nM	< 1 nM	
CC(=O)N1CCc2c(c(N3CCCc4cc(-c5cnn(C)c5)c(C(F)F)cc43)nn2C2CCN(CC3CC4CCC(C3)N4c3ccc(C(=O)N[C@H]4CC[C@H](Oc5ccc(C#N)c(Cl)c5)CC4)nn3)CC2)C1 (stereo partly shown) [Compound 126, 6-[3-[[4-[5-acetyl-3-[7-(difluoromethyl)-6-(1-methylpyrazol-4-yl)-3,4-dihydro-2H-quinolin-1-yl]-6,7-dihydro-4H-pyrazolo[4,3-c]pyridin-1-yl]-1-piperidyl]methyl]-8-azabicyclo[3.2.1]octan-8-yl]-N-[4-(3-chloro-4-cyano-phenoxy)cyclohexyl]pyridazine-3-carboxamide]	≤ 0.1 nM		< 1 nM
CC(=O)N1CCc2c(c(N3CCCc4cc(-c5cnn(C)c5)c(C(F)F)cc43)nn2C2CCN(CC3C4CC3CN(c3ccc(C(=O)N[C@H]5CC[C@H](Oc6ccc(C#N)c(Cl)c6)CC5)nn3)C4)CC2)C1 (stereo partly shown) [Compound 118, 6-[6-[[4-[5-acetyl-3-[7-(difluoromethyl)-6-(1-methylpyrazol-4-yl)-3,4-dihydro-2H-quinolin-1-yl]-6,7-dihydro-4H-pyrazolo[4,3-c]pyridin-1-yl]-1-piperidyl]methyl]-3-azabicyclo [3.1.1]heptan-3-yl]-N-[4-(3-chloro-4-cyano-phenoxy)cyclohexyl] pyridazine-3-carboxamide]	0.1 to 1 nM		< 1 nM
CN1C(=O)CCc2cc(N3CCCc4cc(-c5ccc(CCC6CCN(c7ccc(C(=O)N[C@H]8CC[C@H](Oc9ccc(C#N)c(Cl)c9)CC8)nn7)CC6)nc5)c(C(F)F)cc43)ccc21 [Compound 59, N-[4-(3-chloro-4-cyano-phenoxy)cyclohexyl]-6-[4-[2-[5-[7-(difluoromethyl)-1-(1-methyl-2-oxo-3,4-dihydroquinolin-6-yl)-3,4-dihydro-2H-quinolin-6-yl]-2-pyridyl]ethyl]-1-piperidyl]pyridazine-3-carboxamide]	> 100 nM	> 100 nM	

Continued, in another order:

IC50 (VCaP cells)	EC50 (AR / CBP ternary complex; [1])	Compound	EC50 (AR / CBP ternary complex; [2])
0.1 to 1 nM	< 1 nM	CC(=O)N1CCc2c(c(-c3cccc4cc(-c5cnn(CCC6CCN(c7ccc(C(=O)N[C@H]8CC[C@H](Oc9ccc(C#N)c(Cl)c9)CC8)nn7)CC6)c5)ncc34)nn2C2COC2)C1 [Compound 84, 6-[4-[2-[4-[8-[5-acetyl-1-(oxetan-3-yl)-6,7-dihydro-4H-pyrazolo[4,3-c]pyridin-3-yl]-3-isoquinolyl]pyrazol-1-yl]ethyl]-1-piperidyl]-N-[4-(3-chloro-4-cyano-phenoxy)cyclohexyl]pyridazine-3-carboxamide]	
0.1 to 1 nM	< 1 nM	CC(=O)N1CCc2c(c(-c3cccc4cc(-c5cnn(CCOC6CC7(C6)CN(c6ccc(C(=O)N[C@H]8CC[C@H](Oc9ccc(C#N)c(Cl)c9)CC8)nn6)C7)c5)ncc34)nn2C2CCOCC2)C1 [Compound 63, 6-[6-[2-[4-[8-(5-acetyl-1-tetrahydropyran-4-yl-6,7-dihydro-4H-pyrazolo[4,3-c]pyridin-3-yl)-3-isoquinolyl]pyrazol-1-yl]ethoxy]-2-azaspiro[3.3]heptan-2-yl]-N-[4-(3-chloro-4-cyano-phenoxy)cyclohexyl]pyridazine-3-carboxamide]	
1 to 100 nM	1 to 10 nM	CC(=O)N1CCc2c(c(N3CCCc4cc(-c5ccc(CCC6CCN(c7ccc(C(=O)N[C@H]8CC[C@H](Oc9ccc(C#N)c(Cl)c9)CC8)nn7)CC6)cc5)ncc43)nn2C2CCOCC2)C1 [Compound 156, 6-[4-[2-[4-[1-(5-acetyl-1-tetrahydropyran-4-yl-6,7-dihydro-4H-pyrazolo[4,3-c]pyridin-3-yl)-3,4-dihydro-2H-1,7-naphthyridin-6-yl]phenyl]ethyl]-1-piperidyl]-N-[4-(3-chloro-4-cyano-phenoxy)cyclohexyl]pyridazine-3-carboxamide]	
0.1 to 1 nM	< 1 nM	CC(=O)N1CCc2c(c(-c3cccc4cc(-c5cnn(CCC6CCN(c7ccc(C(=O)N[C@H]8CC[C@H](Oc9ccc(C#N)c(Cl)c9)CC8)nn7)CC6)c5)ncc34)nn2C2CCC2)C1 [Compound 83, 6-[4-[2-[4-[8-(5-acetyl-1-cyclobutyl-6,7-dihydro-4H-pyrazolo[4,3-c]pyridin-3-yl)-3-isoquinolyl]pyrazol-1-yl]ethyl]-1-piperidyl]-N-[4-(3-chloro-4-cyanophenoxy)cyclohexyl]pyridazine-3-carboxamide]	
≤ 0.1 nM	< 1 nM	CC(=O)N1CCc2c(c(N3CCCc4cc(-c5cnn(C)c5)c(C(F)F)cc43)nn2C2CCN(C3CCC(C#Cc4ccc(C(=O)N[C@H]5CC[C@H](Oc6ccc(C#N)c(Cl)c6)CC5)nn4)CC3)CC2)C1 (stereo partly shown) [Compound 194, 6-[2-[4-[4-[5-acetyl-3-[7-(difluoromethyl)-6-(1-methylpyrazol-4-yl)-3,4-dihydro-2H-quinolin-1-yl]-6,7-dihydro-4H-pyrazolo[4,3-c]pyridin-1-yl]-1-piperidyl]cyclohexyl]ethynyl]-N-[4-(3-chloro-4-cyano-phenoxy)cyclohexyl]pyridazine-3-carboxamide]	
0.1 to 1 nM	< 1 nM	CC(=O)N1CCc2c(c(N3CCCc4cc(C#N)ccc43)nn2C2CCN(C[C@H]3CCN(c4ccc(C(=O)N[C@H]5CC[C@H](Oc6ccc(C#N)c(Cl)c6)CC5)nn4)C[C@H]3C)CC2)C1 [Compound 103, 6-[4-[[4-[5-acetyl-3-(6-cyano-3,4-dihydro-2H-quinolin-1-yl)-6,7-dihydro-4H-pyrazolo[4,3-c]pyridin-1-yl]-1-piperidyl]methyl]-3-methyl-1-piperidyl]-N-[4-(3-chloro-4-cyano-phenoxy)cyclohexyl] pyridazine-3-carboxamide]	
≤ 0.1 nM	< 1 nM	CC(=O)N1CCc2c(c(N3CCCc4cc(-c5cnn(C)c5)c(C(F)F)cc43)nn2C2CCN(C[C@H]3[C@H](C)CN(c4ccc(C(=O)N[C@H]5CC[C@H](Oc6ccc(C#N)c(C)c6)CC5)nn4)C[C@@H]3C)CC2)C1 [Compound 289, 6-[4-[[4-[5-acetyl-3-[7-(difluoromethyl)-6-(1-methylpyrazol-4-yl)-3,4-dihydro-2H-quinolin-1-yl]-6,7-dihydro-4H-pyrazolo[4,3-c]pyridin-1-yl]-1-piperidyl]methyl]-3,5-dimethyl-1-piperidyl]-N-[4-(4-cyano-3-methyl-phenoxy)cyclohexyl]pyridazine-3-carboxamide]	
≤ 0.1 nM	< 1 nM	CC(=O)N1CCc2c(c(-c3cccc4cc(-c5cnn(C6CCC7(CC6)CCN(c6ccc(C(=O)N[C@H]8CC[C@H](Oc9ccc(C#N)c(Cl)c9)CC8)nn6)CC7)c5)ncc34)nn2C2CCOCC2)C1 [Compound 182]	
0.1 to 1 nM	1 to 10 nM	CC(=O)N1CCc2c(c(N3CCCc4cc(-c5cnn(C)c5)c(C(F)F)cc43)nn2C2CCN(C(=O)C3CCN(c4ccc(C(=O)N[C@H]5CC[C@H](Oc6ccc(C#N)c(Cl)c6)CC5)cn4)CC3)CC2)C1 [Compound 158, 6-[4-[4-[5-acetyl-3-[7-(difluoromethyl)-6-(1-methylpyrazol-4-yl)-3,4-dihydro-2H-quinolin-1-yl]-6,7-dihydro-4H-pyrazolo[4,3-c]pyridin-1-yl]piperidine-1-carbonyl]-1-piperidyl]-N-[4-(3-chloro-4-cyano-phenoxy)cyclohexyl]pyridine-3-carboxamide]	
≤ 0.1 nM	< 1 nM	CC(=O)N1CCc2c(c(N3CCCc4cc(C#N)c(C(F)F)cc43)nn2C2CCN(CC3CCN(c4ccc(C(=O)N[C@H]5CC[C@H](Oc6ccc(C#N)c(Cl)c6)CC5)nn4)CC3(C)C)CC2)C1 (stereo partly shown) [Compound 283, 6-[4-[[4-[5-acetyl-3-[6-cyano-7-(difluoromethyl)-3,4-dihydro-2H-quinolin-1-yl]-6,7-dihydro-4H-pyrazolo[4,3-c]pyridin-1-yl]-1-piperidyl]methyl]-3,3-dimethyl-1-piperidyl]-N-[4-(3-chloro-4-cyano-phenoxy)cyclohexyl]pyridazine-3-carboxamide]	
